Measured values reported in patent US20120245137A1 (Zalicus Pharmaceuticals Ltd., priority 2009, published 2012).
Where two headings read alike, the source gives them in different places.

Assays:
Format in all cases: cell-based
[1] = target: Human Cav 2.2 channels (Homo sapiens, UniProt Q00975); assay: Fluorescent assay for CaV2.2 channels using potassium depolarization (VIPR/FLIPR); details: FLIPR data; for CAv2.2 IC50 Ratio closed/inact.: ratio closed/inactivated IC50
How it was run: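 Fluo-4 calcium fluorescence (480/535 nm) was recorded on VIPR or FLIPR after depolarization to 70 mM final potassium. Before this, cells were preincubated 30 min at 25 °C with compound in 4–30 mM potassium, so that state-dependent block could be assessed; the cells were HEK293 coexpressing Cav2.2, α2δ, β and Kir2.3.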

[2] = target: T-type calcium channel (Homo sapiens, UniProt O43497); assay: T-type channel blocking, FLIPR data (Table 6); details: CAv3.1
Description: (§1) Another method, high-throughput spectrophotometric assay, utilizes loading of the cell lines with a fluorescent dye sensitive to intracellular calcium concentration and subsequent examination of the effects of compounds on the ability of depolarization by potassium chloride or other means to alter intracellular calcium levels.

[3] = target: T-type calcium channel (Homo sapiens, UniProt O95180); assay: T-type channel blocking, FLIPR data (Table 6); details: for CAv3.2 IC50 Ratio closed/inact.: CAv3.2, ratio closed/inactivated IC50
Description: as §1

[4] = target: CAv1.2 (Homo sapiens, UniProt Q13936); assay: FLIPR data, CAv1.2 channel blocking (Table 6); details: for CAv1.2 IC50 Ratio closed/inact.: ratio closed/inactivated IC50
[5] = closed state, read-out: CAv2.2 IC50 Closed
[6] = inactivated state, read-out: CAv2.2 IC50 Inact.
[7] = CAv3.2, closed state, read-out: CAv3.2 IC50 Closed
[8] = CAv3.2, inactivated state, read-out: CAv3.2 IC50 Inact.
[9] = closed state, read-out: CAv1.2 IC50 Closed
[10] = inactivated state, read-out: CAv1.2 IC50 Inact.

Sequence of Human Cav 2.2 channels (Q00975 whole entry): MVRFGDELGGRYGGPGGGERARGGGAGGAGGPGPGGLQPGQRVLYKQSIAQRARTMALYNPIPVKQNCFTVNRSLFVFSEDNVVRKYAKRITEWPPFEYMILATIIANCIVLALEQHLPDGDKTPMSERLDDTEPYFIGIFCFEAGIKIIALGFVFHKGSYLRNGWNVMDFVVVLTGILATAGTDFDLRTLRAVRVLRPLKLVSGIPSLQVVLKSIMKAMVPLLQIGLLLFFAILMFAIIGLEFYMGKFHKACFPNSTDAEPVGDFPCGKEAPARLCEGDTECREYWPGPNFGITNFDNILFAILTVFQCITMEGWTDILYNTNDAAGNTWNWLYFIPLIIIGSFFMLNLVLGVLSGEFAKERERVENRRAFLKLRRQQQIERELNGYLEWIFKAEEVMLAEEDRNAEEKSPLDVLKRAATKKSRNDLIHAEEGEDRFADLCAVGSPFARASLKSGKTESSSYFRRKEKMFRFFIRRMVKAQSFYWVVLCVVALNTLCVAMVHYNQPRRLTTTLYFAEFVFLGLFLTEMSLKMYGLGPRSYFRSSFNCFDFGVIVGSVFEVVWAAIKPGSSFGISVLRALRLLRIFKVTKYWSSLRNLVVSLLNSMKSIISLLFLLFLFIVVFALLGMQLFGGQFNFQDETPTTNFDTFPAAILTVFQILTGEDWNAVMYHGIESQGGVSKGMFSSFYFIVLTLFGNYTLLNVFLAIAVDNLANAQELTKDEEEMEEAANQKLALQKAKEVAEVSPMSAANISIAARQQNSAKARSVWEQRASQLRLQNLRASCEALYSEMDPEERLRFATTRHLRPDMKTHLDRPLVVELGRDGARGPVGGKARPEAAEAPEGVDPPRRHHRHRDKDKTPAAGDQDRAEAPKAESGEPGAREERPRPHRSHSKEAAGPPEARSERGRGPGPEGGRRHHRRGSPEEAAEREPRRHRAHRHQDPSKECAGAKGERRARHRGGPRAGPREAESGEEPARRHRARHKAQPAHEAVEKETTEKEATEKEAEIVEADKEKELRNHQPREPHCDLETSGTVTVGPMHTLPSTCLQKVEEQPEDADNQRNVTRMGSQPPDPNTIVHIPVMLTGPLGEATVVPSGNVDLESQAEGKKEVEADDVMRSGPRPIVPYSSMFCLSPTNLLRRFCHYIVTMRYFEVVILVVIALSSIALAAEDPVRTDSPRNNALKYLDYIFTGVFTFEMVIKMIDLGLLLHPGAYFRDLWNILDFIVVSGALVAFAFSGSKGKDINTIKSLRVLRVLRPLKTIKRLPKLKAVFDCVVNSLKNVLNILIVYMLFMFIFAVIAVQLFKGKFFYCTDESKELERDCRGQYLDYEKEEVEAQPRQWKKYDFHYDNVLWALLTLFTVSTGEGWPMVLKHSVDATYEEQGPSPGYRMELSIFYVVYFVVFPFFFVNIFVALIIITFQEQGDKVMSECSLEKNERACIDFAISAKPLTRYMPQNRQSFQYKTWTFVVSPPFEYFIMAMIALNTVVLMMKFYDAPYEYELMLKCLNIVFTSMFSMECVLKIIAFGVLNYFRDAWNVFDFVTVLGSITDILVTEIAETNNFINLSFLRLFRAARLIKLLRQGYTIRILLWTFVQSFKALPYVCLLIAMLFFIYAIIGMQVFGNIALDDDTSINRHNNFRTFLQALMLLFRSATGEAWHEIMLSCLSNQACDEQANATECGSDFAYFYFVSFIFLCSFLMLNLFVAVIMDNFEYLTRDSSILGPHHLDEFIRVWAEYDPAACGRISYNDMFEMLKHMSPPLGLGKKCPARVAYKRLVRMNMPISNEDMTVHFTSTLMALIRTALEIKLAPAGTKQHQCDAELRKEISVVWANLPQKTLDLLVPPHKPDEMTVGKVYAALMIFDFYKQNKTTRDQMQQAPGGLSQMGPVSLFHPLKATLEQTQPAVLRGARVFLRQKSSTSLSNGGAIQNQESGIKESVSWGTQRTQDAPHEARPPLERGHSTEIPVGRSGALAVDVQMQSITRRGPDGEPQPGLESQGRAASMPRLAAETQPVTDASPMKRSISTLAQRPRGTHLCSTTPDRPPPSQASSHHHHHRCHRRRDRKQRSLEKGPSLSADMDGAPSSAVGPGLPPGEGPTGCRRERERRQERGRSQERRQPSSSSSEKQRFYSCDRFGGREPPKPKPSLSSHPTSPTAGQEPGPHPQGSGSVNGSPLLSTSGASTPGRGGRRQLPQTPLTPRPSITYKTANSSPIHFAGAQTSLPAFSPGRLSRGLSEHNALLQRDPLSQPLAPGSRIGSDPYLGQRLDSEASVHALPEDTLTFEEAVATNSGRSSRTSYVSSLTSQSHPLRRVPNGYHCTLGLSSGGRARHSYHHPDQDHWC
Sequence of Human Cav 2.2 channels (P54289 25-1103 partner): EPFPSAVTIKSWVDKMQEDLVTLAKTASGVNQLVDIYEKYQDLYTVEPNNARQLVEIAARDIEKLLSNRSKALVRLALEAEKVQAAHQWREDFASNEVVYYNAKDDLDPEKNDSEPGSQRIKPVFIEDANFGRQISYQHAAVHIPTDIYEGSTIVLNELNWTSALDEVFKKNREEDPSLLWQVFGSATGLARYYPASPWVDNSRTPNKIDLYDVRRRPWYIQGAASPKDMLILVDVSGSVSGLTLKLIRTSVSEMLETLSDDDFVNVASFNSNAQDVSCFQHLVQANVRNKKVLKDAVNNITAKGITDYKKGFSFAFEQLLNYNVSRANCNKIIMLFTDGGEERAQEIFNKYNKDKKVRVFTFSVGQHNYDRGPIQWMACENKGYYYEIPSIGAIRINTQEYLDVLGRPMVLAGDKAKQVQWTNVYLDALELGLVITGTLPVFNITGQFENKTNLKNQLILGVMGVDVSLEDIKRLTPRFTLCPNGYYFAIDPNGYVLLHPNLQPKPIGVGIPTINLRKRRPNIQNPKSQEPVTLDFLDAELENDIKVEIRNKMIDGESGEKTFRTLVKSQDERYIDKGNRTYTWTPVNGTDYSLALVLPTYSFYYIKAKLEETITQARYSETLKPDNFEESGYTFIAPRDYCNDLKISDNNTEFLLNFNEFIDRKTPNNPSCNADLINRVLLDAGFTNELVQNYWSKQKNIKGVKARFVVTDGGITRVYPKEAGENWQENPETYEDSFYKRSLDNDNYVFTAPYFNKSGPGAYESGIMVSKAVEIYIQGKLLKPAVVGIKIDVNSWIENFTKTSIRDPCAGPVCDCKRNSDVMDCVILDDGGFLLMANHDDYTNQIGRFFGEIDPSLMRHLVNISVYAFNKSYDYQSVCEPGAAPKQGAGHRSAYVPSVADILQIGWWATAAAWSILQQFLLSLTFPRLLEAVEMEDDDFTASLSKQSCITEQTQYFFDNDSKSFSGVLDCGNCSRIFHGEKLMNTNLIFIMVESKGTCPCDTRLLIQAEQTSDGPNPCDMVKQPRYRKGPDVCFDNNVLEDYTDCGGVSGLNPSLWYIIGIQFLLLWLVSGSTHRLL
Sequence of Human Cav 2.2 channels (P54284 whole entry partner): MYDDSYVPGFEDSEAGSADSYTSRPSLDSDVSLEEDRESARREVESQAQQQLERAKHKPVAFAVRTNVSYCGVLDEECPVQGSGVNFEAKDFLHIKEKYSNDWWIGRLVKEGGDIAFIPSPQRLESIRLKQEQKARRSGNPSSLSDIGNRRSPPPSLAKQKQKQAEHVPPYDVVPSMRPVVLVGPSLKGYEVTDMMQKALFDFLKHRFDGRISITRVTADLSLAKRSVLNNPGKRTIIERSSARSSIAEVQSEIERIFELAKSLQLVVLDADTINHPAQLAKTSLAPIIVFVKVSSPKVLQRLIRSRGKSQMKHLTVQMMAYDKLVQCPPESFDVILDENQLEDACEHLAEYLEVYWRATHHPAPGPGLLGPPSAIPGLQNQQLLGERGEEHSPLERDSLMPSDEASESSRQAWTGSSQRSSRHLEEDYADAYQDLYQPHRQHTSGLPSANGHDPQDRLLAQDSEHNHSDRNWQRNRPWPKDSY

## O=C(NC[C@H]1C[C@H](S(=O)(=O)c2cc(F)cc(C(F)(F)F)c2)C1)c1ccc(C(F)(F)F)cc1 [Compound 703]
[1]; [5]
  IC50: 6.49 µM
[1]; [6]
  IC50: 0.83 µM
[1]
  CAv2.2 IC50 Ratio closed/inact.: 7.8
[2]
  IC50: 1.86 µM
[3]; [7]
  IC50: 4.14 µM
[3]; [8]
  IC50: 1.39 µM
[3]
  CAv3.2 IC50 Ratio closed/inact.: 3
[4]; [9]
  IC50: 8.18 µM
[4]; [10]
  IC50: 4.83 µM
[4]
  CAv1.2 IC50 Ratio closed/inact.: 1.7

## CC(C)([C@H]1C[C@@H](NC(=O)c2ccc(C(F)(F)F)cc2)C1)S(=O)(=O)c1cccc(C(F)(F)F)c1 [Compound 581]
[1]; [5]
  IC50: 2.43 µM
[1]; [6]
  IC50: 0.13 µM
[1]
  CAv2.2 IC50 Ratio closed/inact.: 18.7
[2]
  IC50: 4.84 µM
[3]; [7]
  IC50: 3.07 µM
[3]; [8]
  IC50: 0.66 µM
[3]
  CAv3.2 IC50 Ratio closed/inact.: 4.7
[4]; [9]
  IC50: 3.87 µM
[4]; [10]
  IC50: 1.48 µM
[4]
  CAv1.2 IC50 Ratio closed/inact.: 2.6

## CC(C)(C[C@H]1C[C@H](NC(=O)c2ccc(Cl)cn2)C1)S(=O)(=O)c1cccc(C(F)(F)F)c1 [Compound 720]
[1]; [5]
  IC50: 0.83 µM
[1]; [6]
  IC50: 0.16 µM
[1]
  CAv2.2 IC50 Ratio closed/inact.: 5.2
[2]
  IC50: 4.5 µM
[3]; [7]
  IC50: 3.95 µM
[3]; [8]
  IC50: 2.05 µM
[3]
  CAv3.2 IC50 Ratio closed/inact.: 1.9
[4]; [9]
  IC50: 7.01 µM
[4]; [10]
  IC50: 2.45 µM
[4]
  CAv1.2 IC50 Ratio closed/inact.: 2.9

## CC(C)([C@H]1C[C@@H](CNC(=O)c2ccc(OCC(F)(F)F)nc2)C1)S(=O)(=O)c1cccc(C(F)(F)F)c1 [Compound 686]
[1]; [5]
  IC50: 2.47 µM
[1]; [6]
  IC50: 0.26 µM
[1]
  CAv2.2 IC50 Ratio closed/inact.: 9.5
[2]
  IC50: 1.17 µM
[3]; [7]
  IC50: 1.2 µM
[4]; [9]
  IC50: 4.42 µM
[4]; [10]
  IC50: 1.1 µM
[4]
  CAv1.2 IC50 Ratio closed/inact.: 4

## O=C(NC[C@H]1C[C@H](S(=O)(=O)c2cccc(C(F)(F)F)c2)C1)c1ccc(C(F)(F)F)nc1 [Compound 571]
[1]; [5]
  IC50: 10 µM
[1]; [6]
  IC50: 0.42 µM
[1]
  CAv2.2 IC50 Ratio closed/inact.: 23.8
[2]
  IC50: ≥ 10 µM
[3]; [7]
  IC50: ≥ 10 µM
[3]; [8]
  IC50: 10 µM
[3]
  CAv3.2 IC50 Ratio closed/inact.: 1
[4]; [9]
  IC50: ≥ 10 µM
[4]; [10]
  IC50: ≥ 10 µM

## CC(C)([C@H]1C[C@H](NS(=O)(=O)c2ccc(F)c(Cl)c2)C1)S(=O)(=O)c1cccc(C(F)(F)F)c1 [Compound 664]
[1]; [5]
  IC50: 8.05 µM
[1]; [6]
  IC50: 1.06 µM
[1]
  CAv2.2 IC50 Ratio closed/inact.: 7.6
[2]
  IC50: 2.93 µM
[3]; [7]
  IC50: 3.08 µM
[3]; [8]
  IC50: 2.79 µM
[3]
  CAv3.2 IC50 Ratio closed/inact.: 1.1
[4]; [9]
  IC50: ≥ 10 µM
[4]; [10]
  IC50: 3.67 µM
[4]
  CAv1.2 IC50 Ratio closed/inact.: 2.7

## CS(=O)(=O)c1cc(Cl)ccc1C(=O)NC[C@H]1C[C@H](S(=O)(=O)c2cccc(OC(F)(F)F)c2)C1 [Compound 692]
[1]; [5]
  IC50: 7.75 µM
[1]; [6]
  IC50: 0.78 µM
[1]
  CAv2.2 IC50 Ratio closed/inact.: 9.9
[2]
  IC50: 9.81 µM
[3]; [7]
  IC50: 7.92 µM
[3]; [8]
  IC50: 2.48 µM
[3]
  CAv3.2 IC50 Ratio closed/inact.: 3.2
[4]; [9]
  IC50: ≥ 10 µM
[4]; [10]
  IC50: ≥ 10 µM

## O=C(NC[C@H]1C[C@H](S(=O)(=O)c2cccc(OC(F)(F)F)c2)C1)c1ccc(C(F)(F)F)cc1 [Compound 694]
[1]; [5]
  IC50: 2.11 µM
[1]; [6]
  IC50: 0.3 µM
[1]
  CAv2.2 IC50 Ratio closed/inact.: 7
[2]
  IC50: 3.08 µM
[3]; [7]
  IC50: 2.47 µM
[3]; [8]
  IC50: 1 µM
[3]
  CAv3.2 IC50 Ratio closed/inact.: 2.5
[4]; [9]
  IC50: 7.51 µM
[4]; [10]
  IC50: 2.22 µM
[4]
  CAv1.2 IC50 Ratio closed/inact.: 3.4

## CC(C)(C1CC(CNC(=O)c2cc(C(F)(F)F)n[nH]2)C1)S(=O)(=O)c1cccc(C(F)(F)F)c1 (stereo not shown) [Compound 614]
[1]; [5]
  IC50: 2.87 µM
[1]; [6]
  IC50: 0.49 µM
[1]
  CAv2.2 IC50 Ratio closed/inact.: 5.9
[2]
  IC50: ≥ 10 µM
[3]; [7]
  IC50: 7.2 µM
[3]; [8]
  IC50: 3.2 µM
[3]
  CAv3.2 IC50 Ratio closed/inact.: 2.3
[4]; [9]
  IC50: 8.03 µM
[4]; [10]
  IC50: 2.41 µM
[4]
  CAv1.2 IC50 Ratio closed/inact.: 3.3

## Cn1nc(C(F)(F)F)cc1C(=O)N[C@H]1C[C@H](CC(C)(C)S(=O)(=O)c2cccc(C(F)(F)F)c2)C1 [Compound 725]
[1]; [5]
  IC50: 1.63 µM
[1]; [6]
  IC50: 0.14 µM
[1]
  CAv2.2 IC50 Ratio closed/inact.: 11.6
[2]
  IC50: 3.6 µM
[3]; [7]
  IC50: 2.31 µM
[3]; [8]
  IC50: 0.68 µM
[3]
  CAv3.2 IC50 Ratio closed/inact.: 3.4
[4]; [9]
  IC50: 6.7 µM
[4]; [10]
  IC50: 2.78 µM
[4]
  CAv1.2 IC50 Ratio closed/inact.: 2.4

## O=C(NC[C@H]1C[C@H](S(=O)(=O)c2cccc(OC(F)(F)F)c2)C1)c1ccc(C(F)(F)F)nc1 [Compound 695]
[1]; [5]
  IC50: 5.12 µM
[1]; [6]
  IC50: 0.78 µM
[1]
  CAv2.2 IC50 Ratio closed/inact.: 6.6
[2]
  IC50: 9.87 µM
[3]; [7]
  IC50: 8.58 µM
[3]; [8]
  IC50: 5.58 µM
[3]
  CAv3.2 IC50 Ratio closed/inact.: 1.5
[4]; [9]
  IC50: ≥ 10 µM
[4]; [10]
  IC50: ≥ 10 µM

## CC(C)([C@H]1C[C@@H](CNc2ccnc(C(F)(F)F)n2)C1)S(=O)(=O)c1cccc(C(F)(F)F)c1 [Compound 691]
[1]; [5]
  IC50: 4.03 µM
[1]; [6]
  IC50: 0.53 µM
[1]
  CAv2.2 IC50 Ratio closed/inact.: 7.6
[2]
  IC50: 5.83 µM
[3]; [7]
  IC50: 7.35 µM
[4]; [9]
  IC50: 4.94 µM
[4]; [10]
  IC50: 2.22 µM
[4]
  CAv1.2 IC50 Ratio closed/inact.: 2.2

## CC(C)([C@H]1C[C@H](NC(=O)c2ccc(Cl)cn2)C1)S(=O)(=O)c1cccc(C(F)(F)F)c1 [Compound 673]
[1]; [5]
  IC50: 1.88 µM
[1]; [6]
  IC50: 0.2 µM
[1]
  CAv2.2 IC50 Ratio closed/inact.: 9.4
[2]
  IC50: 6.56 µM
[3]; [7]
  IC50: 5.37 µM
[3]; [8]
  IC50: 4.33 µM
[3]
  CAv3.2 IC50 Ratio closed/inact.: 1.2
[4]; [9]
  IC50: ≥ 10 µM
[4]; [10]
  IC50: 4.57 µM
[4]
  CAv1.2 IC50 Ratio closed/inact.: 2.2

## CC(C)([C@H]1C[C@@H](NS(=O)(=O)c2ccc(C(F)(F)F)nc2)C1)S(=O)(=O)c1cccc(C(F)(F)F)c1 [Compound 629]
[1]; [5]
  IC50: 7.45 µM
[1]; [6]
  IC50: 0.43 µM
[1]
  CAv2.2 IC50 Ratio closed/inact.: 17.3
[2]
  IC50: 2.97 µM
[3]; [7]
  IC50: 3.41 µM
[3]; [8]
  IC50: 3.38 µM
[3]
  CAv3.2 IC50 Ratio closed/inact.: 1
[4]; [9]
  IC50: ≥ 10 µM
[4]; [10]
  IC50: 4.66 µM
[4]
  CAv1.2 IC50 Ratio closed/inact.: 2.1

## CC(C)([C@H]1C[C@@H](NC(=O)c2cnc(C(F)(F)F)nc2)C1)S(=O)(=O)c1cccc(C(F)(F)F)c1 [Compound 579]
[1]; [5]
  IC50: 10 µM
[1]; [6]
  IC50: 0.66 µM
[1]
  CAv2.2 IC50 Ratio closed/inact.: 15.2
[2]
  IC50: ≥ 10 µM
[3]; [7]
  IC50: ≥ 10 µM
[3]; [8]
  IC50: 10 µM
[3]
  CAv3.2 IC50 Ratio closed/inact.: 1
[4]; [9]
  IC50: ≥ 10 µM
[4]; [10]
  IC50: 9.95 µM
[4]
  CAv1.2 IC50 Ratio closed/inact.: 1

## CC(C)([C@H]1C[C@H](NC(=O)c2cc(C(F)(F)F)n[nH]2)C1)S(=O)(=O)c1cccc(OC(F)(F)F)c1 [Compound 632]
[1]; [5]
  IC50: 5.69 µM
[1]; [6]
  IC50: 0.46 µM
[1]
  CAv2.2 IC50 Ratio closed/inact.: 12.4
[2]
  IC50: 9.41 µM
[3]; [7]
  IC50: 0.57 µM
[3]; [8]
  IC50: 1.52 µM
[3]
  CAv3.2 IC50 Ratio closed/inact.: 0.4
[4]; [9]
  IC50: ≥ 10 µM
[4]; [10]
  IC50: 3.3 µM
[4]
  CAv1.2 IC50 Ratio closed/inact.: 3

## CC(C)([C@H]1C[C@H](NC(=O)c2ccc(OCC(F)(F)F)nc2)C1)S(=O)(=O)c1cccc(C(F)(F)F)c1 [Compound 674]
[1]; [5]
  IC50: 3.01 µM
[1]; [6]
  IC50: 0.29 µM
[1]
  CAv2.2 IC50 Ratio closed/inact.: 10.4
[2]
  IC50: 9.43 µM
[3]; [7]
  IC50: 2.74 µM
[3]; [8]
  IC50: 2.39 µM
[3]
  CAv3.2 IC50 Ratio closed/inact.: 1.1
[4]; [9]
  IC50: 7.73 µM
[4]; [10]
  IC50: 1.74 µM
[4]
  CAv1.2 IC50 Ratio closed/inact.: 4.4
